Experimental data published in PubChem BioAssay (NCI).
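Dose response: 5 concentrations. Exposure: 48 h. Format: 96-well plates. Endpoint: linear interpolation; highest concentration if not reached. TGI marks complete inhibition of growth.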

Columns and labels:
Test in all cases: NCI anticancer screen, dose series, 48 h
[1] = tested on: U251 CNS
[2] = tested on: MALME-3M melanoma
[3] = tested on: NCI-H23 lung
[4] = tested on: CCRF-CEM leukemia
[5] = tested on: OVCAR-5 ovarian
[6] = tested on: HS 578T breast
[7] = tested on: MOLT-4 leukemia
[8] = tested on: SR leukemia
[9] = tested on: OVCAR-4 ovarian
[10] = tested on: MDA-MB-231 breast
[11] = tested on: T-47D breast
[12] = tested on: NCI-H522 lung
[13] = tested on: PC-3 prostate
[14] = tested on: HOP-62 NSCLC
[15] = tested on: HCT-116 colon
[16] = tested on: COLO 205 colon
[17] = tested on: CAKI-1 renal
[18] = tested on: BT-549 breast
[19] = tested on: OVCAR-8 ovarian
[20] = tested on: SK-OV-3 ovarian
[21] = tested on: EKVX NSCLC
[22] = tested on: SF-268 CNS
[23] = tested on: K-562 leukemia
[24] = tested on: SNB-75 CNS
[25] = tested on: RPMI-8226 leukemia
[26] = tested on: KM12 colon
[27] = tested on: SN12C renal
[28] = tested on: MDA-N
[29] = tested on: A498 renal
[30] = tested on: SK-MEL-28 melanoma
[31] = tested on: RXF 393 renal
[32] = tested on: TK-10 renal
[33] = tested on: OVCAR-3 ovarian
[34] = tested on: HCC-2998 colon
[35] = tested on: M14 melanoma
[36] = tested on: LOX IMVI melanoma
[37] = tested on: UACC-257 melanoma
[38] = tested on: SW-620 colon
[39] = tested on: NCI/ADR-RES ovarian
[40] = tested on: HT29 colon
[41] = tested on: SF-539 CNS
[42] = tested on: HL-60(TB) leukemia
[43] = tested on: SNB-19 CNS
[44] = tested on: HCT-15 colon
[45] = tested on: NCI-H460 lung
[46] = tested on: MCF7 breast
[47] = tested on: UO-31 renal
[48] = tested on: SK-MEL-5 melanoma
[49] = tested on: UACC-62 melanoma
[50] = tested on: HOP-92 NSCLC
[51] = tested on: A549 NSCLC
[52] = tested on: IGROV1 ovarian
[53] = tested on: MDA-MB-435
[54] = tested on: 786-0 renal
[55] = tested on: SK-MEL-2 melanoma
[56] = tested on: ACHN renal
[57] = tested on: NCI-H226 lung
[58] = tested on: DU-145 prostate
[59] = tested on: SF-295 CNS

Measured: TGI

c1ccc(SCCc2ccncc2)cc1
> 100 µM: [1] | [2] | [3] | [4] | [5] | [6] | [7] | [8] | [9] | [10] | [11] | [12] | [13] | [14] | [15] | [16] | [17] | [18] | [19] | [20] | [21] | [22] | [23] | [24] | [25] | [26] | [27] | [28] | [29] | [30] | [31] | [32] | [33] | [34] | [35] | [36] | [37] | [38] | [39] | [40] | [41] | [42] | [43] | [44] | [45] | [46] | [47] | [48] | [49] | [50] | [51] | [52] | [53] | [54] | [55] | [56] | [57] | [58] | [59]
